Experimental findings from PubChem BioAssay (NCI) are described below.

Values joined by “and” are separate entries in the source; they are usually repeats but may differ in a detail not shown here. Equal entries are not always repeated.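 Results reflect a 48-hour exposure of cells in 96-well plates to compound at five concentrations. GI50 marks 50% less growth. At the TGI there is no net growth.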

Test systems include SF-539 CNS; DU-145 prostate; SNB-75 CNS; SN12C renal; SW-620 colon; MDA-MB-231 breast; M14 melanoma; OVCAR-8 ovarian; ACHN renal; MOLT-4 leukemia.
What all share (assay): inhibition of tumour cell growth, NCI panel, 48 h

Turning to `Cc1cc(N(CCCl)CCCl)ccc1C=Nc1ccc2ccccc2c1`, the GI50 with SF-539 CNS was 4.97 µM; in the experiment with DU-145 prostate, 7.71 µM; with SNB-75 CNS, 2.52 µM; in the experiment with SN12C renal, 12.4 µM; in the experiment on SW-620 colon, 41.9 µM; with MDA-MB-231 breast, 34.5 µM. For the same compound, the GI50 with M14 melanoma was 31.7 µM; with OVCAR-8 ovarian, 24.3 µM; in the experiment on ACHN renal, 4.51 µM; with MOLT-4 leukemia it was 4.52 µM. Also, the TGI with SF-539 CNS was greater than 100 µM; with DU-145 prostate it was greater than 100 µM; in the experiment with SNB-75 CNS it was greater than 89.7 µM; with SN12C renal, greater than 100 µM; in the experiment with SW-620 colon, greater than 100 µM; in the experiment with MDA-MB-231 breast it was greater than 100 µM. Besides, the TGI in the experiment on M14 melanoma, with OVCAR-8 ovarian, in the experiment on ACHN renal and with MOLT-4 leukemia was greater than 100 µM throughout.

For `CC1(C)[C@@H](OC(=O)CCC(=O)O)CC[C@]2(C)[C@H]3C(=O)C=C4[C@@H]5C[C@@](C)(C(=O)O)CC[C@]5(C)CC[C@@]4(C)[C@]3(C)CC[C@@H]12`, the GI50 is 53.1 µM with SF-539 CNS; 58.3 µM in the experiment on DU-145 prostate; 55 µM in the experiment with SNB-75 CNS; 51.9 µM with SN12C renal; 59.2 µM in the experiment on SW-620 colon; 78.8 µM in the experiment with MDA-MB-231 breast. The GI50 with M14 melanoma was 58.4 µM; in the experiment on OVCAR-8 ovarian it was 59.1 µM; in the experiment on ACHN renal, 63 µM. Further, the TGI in the experiment on SF-539 CNS was determined as 76.7 µM; with DU-145 prostate, 142 µM; in the experiment with SNB-75 CNS, 83.5 µM; in the experiment on SN12C renal, 105 µM; in the experiment on SW-620 colon, 126 µM; with MDA-MB-231 breast, 171 µM. In addition, the TGI in the experiment on M14 melanoma was 129 µM; with OVCAR-8 ovarian, 154 µM; in the experiment on ACHN renal, 114 µM.

As to `O=c1ssc(Cl)c1Cl`, the TGI is greater than 10 µM in the experiment on SF-539 CNS; greater than 10 µM in the experiment on DU-145 prostate; greater than 10 µM in the experiment on SNB-75 CNS; greater than 10 µM with SN12C renal; greater than 8.11 µM in the experiment with SW-620 colon; greater than 10 µM with MDA-MB-231 breast. Besides, the TGI with M14 melanoma is greater than 10 µM; with OVCAR-8 ovarian it was greater than 10 µM; in the experiment on ACHN renal, greater than 10 µM; in the experiment on MOLT-4 leukemia it was 4.9 µM.

For the compound `O=C1c2ccccc2-c2c1c1ccccc1c(=O)n2CCCNCCCCNCCCN1C(=O)c2ccccc2C2C(=O)c3ccccc3C21` (stereo not drawn), the GI50 was 0.0919 µM in the experiment with SF-539 CNS; 0.127 µM in the experiment with DU-145 prostate; 0.726 µM in the experiment on SNB-75 CNS; less than 0.005 µM with SN12C renal; 0.126 µM in the experiment with SW-620 colon; 0.284 µM in the experiment on MDA-MB-231 breast. Further, the GI50 was 0.643 µM with M14 melanoma, 0.0241 µM with OVCAR-8 ovarian, 0.0573 µM in the experiment on ACHN renal and less than 0.005 µM in the experiment with MOLT-4 leukemia. Moreover, the TGI was 0.759 µM in the experiment on SF-539 CNS; 0.837 µM with DU-145 prostate; 1.46 µM with SNB-75 CNS; 0.818 µM in the experiment on SN12C renal; 1.21 µM in the experiment with SW-620 colon; 1.04 µM in the experiment on MDA-MB-231 breast. Moreover, the TGI is 1.53 µM in the experiment with M14 melanoma, 0.986 µM with OVCAR-8 ovarian, 0.762 µM with ACHN renal and 0.711 µM in the experiment on MOLT-4 leukemia.

Take `Clc1ccc(OCc2nnc3n2N=C(c2ccc(Cl)cc2Cl)CS3)cc1`: the GI50 in the experiment on SF-539 CNS was 17.4 µM; in the experiment with DU-145 prostate, 31.2 µM; in the experiment on SNB-75 CNS, 16.3 µM; with SN12C renal, 14.8 µM; with SW-620 colon, 31.6 µM; in the experiment with MDA-MB-231 breast it was 14.4 µM. Also, the GI50 in the experiment with M14 melanoma is 16.4 µM; in the experiment on OVCAR-8 ovarian it was 25.4 µM; in the experiment on ACHN renal, 20.4 µM; in the experiment on MOLT-4 leukemia it was 32.4 µM. For the same compound, the TGI in the experiment with SF-539 CNS was 34.6 µM; with DU-145 prostate it was greater than 100 µM; in the experiment with SNB-75 CNS, 43.2 µM; in the experiment with SN12C renal, 30.6 µM; in the experiment with SW-620 colon, greater than 100 µM; in the experiment on MDA-MB-231 breast, 33.2 µM. The TGI was 36.3 µM in the experiment on M14 melanoma, 52.7 µM in the experiment with OVCAR-8 ovarian, 49.3 µM in the experiment with ACHN renal and greater than 100 µM with MOLT-4 leukemia.

Regarding `COc1ccc(C2C(C)C(=O)C(C)C(c3ccc(OC)cc3)N2N=O)cc1` (stereo not drawn), the GI50 with SF-539 CNS is 18 µM and 41.3 µM; with SNB-75 CNS, 5.93 µM; in the experiment with SN12C renal it was greater than 750 µM; with SW-620 colon, greater than 750 µM; in the experiment with OVCAR-8 ovarian, 30.5 µM and 248 µM. Also, the TGI with SF-539 CNS was 46.8 µM and 341 µM and 222 µM; in the experiment with DU-145 prostate it was 637 µM; with SNB-75 CNS it was 20.4 µM and 80 µM and 57.8 µM; with SN12C renal, greater than 1000 µM; in the experiment with SW-620 colon, greater than 1000 µM; in the experiment with MDA-MB-231 breast, 132 µM. In addition, the TGI in the experiment with M14 melanoma was 750 µM and > 732 µM; in the experiment on OVCAR-8 ovarian, 750 µM and > 1000 µM; in the experiment on ACHN renal, greater than 663 µM; in the experiment on MOLT-4 leukemia, greater than 1000 µM.

As to `COc1cc(C(=O)Nc2cc(OC)c3ccn(C)c3c2)cc2c1C[C@]1(C)CC[C@@H](O)C(C)(C)[C@H]1O2`, the GI50 was 0.0632 µM in the experiment with SF-539 CNS; 1.22 µM with DU-145 prostate; 0.0521 µM in the experiment on SNB-75 CNS; 3.93 µM in the experiment with SN12C renal; 1.04 µM with SW-620 colon; 1.86 µM in the experiment with MDA-MB-231 breast. Also, the GI50 in the experiment with M14 melanoma was 0.454 µM; with OVCAR-8 ovarian, 2.69 µM; in the experiment on ACHN renal, 0.944 µM; in the experiment on MOLT-4 leukemia it was 0.21 µM. The TGI in the experiment on SF-539 CNS is 2.22 µM; with DU-145 prostate it was 29 µM; with SNB-75 CNS it was 2.19 µM; in the experiment on SN12C renal, greater than 100 µM; with SW-620 colon, 10 µM; in the experiment with MDA-MB-231 breast, 16.5 µM. Besides, the TGI with M14 melanoma is 2.9 µM; in the experiment on OVCAR-8 ovarian, 58 µM; in the experiment with ACHN renal, greater than 100 µM; in the experiment with MOLT-4 leukemia, 1.45 µM.

For the compound `OCc1ccc(N2CCc3ccccc3C2)cc1Cl`, the GI50 is 41.9 µM with SF-539 CNS; 2.38 µM in the experiment on DU-145 prostate; 15.9 µM with SNB-75 CNS; 11.4 µM in the experiment on SN12C renal; less than 0.0218 µM in the experiment on SW-620 colon; 12.4 µM with MDA-MB-231 breast. Also, the GI50 in the experiment on M14 melanoma was 34.1 µM; in the experiment with OVCAR-8 ovarian, 3.66 µM; in the experiment on ACHN renal, 18.4 µM; with MOLT-4 leukemia it was 27.2 µM. The TGI in the experiment with SF-539 CNS was greater than 100 µM; in the experiment with DU-145 prostate it was 22.3 µM; in the experiment on SNB-75 CNS, 57.7 µM; in the experiment with SN12C renal, greater than 100 µM; in the experiment with SW-620 colon it was greater than 100 µM; in the experiment with MDA-MB-231 breast it was 40.8 µM. For the same compound, the TGI is greater than 100 µM with M14 melanoma, 36.6 µM in the experiment with OVCAR-8 ovarian, greater than 78.6 µM in the experiment with ACHN renal and greater than 78.7 µM in the experiment with MOLT-4 leukemia.
